Experimental data taken from the supplement of paper PMC10307832.

Experiments:
Assay in all cases: relative viability (nuclei count vs DMSO), 5 days (fraction); higher = more cells survive
CAL-12T = system: CAL-12T
Summary of the method: (§1)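 Lung cancer cell lines, seeded in 1536-well plates, were treated the following day by pin tool with a single drug or with five library-drug doses (not always all listed) in √10 steps on top of a fixed anchor-drug dose. Cells were fixed and nuclei stained in one step after 5 days, and nuclei were counted. Relative viability is the nuclei count for treated wells divided by that for vehicle wells, reported as medians of duplicate plates.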

NCI-H2009 = system: NCI-H2009
Summary of the method: as §1

PC-14 = system: PC-14
Summary of the method: as §1

HCC-44 = system: HCC-44
Summary of the method: as §1

LCLC-97TM1 = system: LCLC-97TM1
Summary of the method: as §1

NCI-H727 = system: NCI-H727
Summary of the method: as §1

NCI-H2170 = system: NCI-H2170
Summary of the method: as §1

HCC-366 = system: HCC-366
Summary of the method: as §1

COR-L 105 = system: COR-L 105
Summary of the method: as §1

HCC-15 = system: HCC-15
Summary of the method: as §1

NCI-H2126 = system: NCI-H2126
Summary of the method: as §1

NCI-H1993 = system: NCI-H1993
Summary of the method: as §1

NCI-H2087 = system: NCI-H2087
Summary of the method: as §1

HCC-827 = system: HCC-827
Summary of the method: as §1

HOP-62 = system: HOP-62
Summary of the method: as §1

PC-3 [JPC-3] = system: PC-3 [JPC-3]
Summary of the method: as §1

SK-MES-1 = system: SK-MES-1
Summary of the method: as §1

BEN = system: BEN
Summary of the method: as §1

LC-2-ad = system: LC-2-ad
Summary of the method: as §1

HARA = system: HARA
Summary of the method: as §1

COR-L23 = system: COR-L23
Summary of the method: as §1

LU99A = system: LU99A
Summary of the method: as §1

LXF-289 = system: LXF-289
Summary of the method: as §1

For `Cc1cnc(-c2cnc(NCCNc3ccc(C#N)cn3)nc2-c2ccc(Cl)cc2Cl)[nH]1` + COc1cccc2cc(-c3nc([C@H]4CC[C@H](C(=O)O)CC4)n4ncnc(N)c34)[nH]c12 [OSI-027] (partner 0.5 µM), the relative viability (CAL-12T; first compound 0.08 µM) was 0.774, the relative viability (CAL-12T; first compound 0.253 µM) was 0.59 and the relative viability (CAL-12T; first compound 0.8 µM) was 0.565. It also gave a relative viability (CAL-12T; first compound 2.53 µM) of 0.571, a relative viability (NCI-H2009; first compound 0.08 µM) of 0.729 and a relative viability (NCI-H2009; first compound 0.253 µM) of 0.597. For the same compound, the relative viability (NCI-H2009; first compound 0.8 µM) was 0.609, the relative viability (NCI-H2009; first compound 2.53 µM) was 0.496 and the relative viability (PC-14; first compound 0.08 µM) was 1.21. For the same compound, the relative viability (PC-14; first compound 0.253 µM) was 0.673, the relative viability (PC-14; first compound 0.8 µM) was 0.76 and the relative viability (PC-14; first compound 2.53 µM) was 0.643. The relative viability (HCC-44; first compound 0.08 µM) was 0.555, the relative viability (HCC-44; first compound 0.253 µM) was 0.483 and the relative viability (HCC-44; first compound 0.8 µM) was 0.485. For the same compound, the relative viability (HCC-44; first compound 2.53 µM) was 0.932, the relative viability (LCLC-97TM1; first compound 0.08 µM) was 0.648 and the relative viability (LCLC-97TM1; first compound 0.8 µM) was 0.646. For the same compound, the relative viability (LCLC-97TM1; first compound 2.53 µM) was 0.688, the relative viability (NCI-H727; first compound 0.08 µM) was 0.588 and the relative viability (NCI-H727; first compound 0.253 µM) was 0.589. The relative viability (NCI-H727; first compound 0.8 µM) was 0.518, the relative viability (NCI-H727; first compound 2.53 µM) was 0.442 and the relative viability (NCI-H2170; first compound 0.08 µM) was 0.732. For the same compound, the relative viability (NCI-H2170; first compound 0.253 µM) was 0.554, the relative viability (NCI-H2170; first compound 0.8 µM) was 0.705 and the relative viability (NCI-H2170; first compound 2.53 µM) was 0.609. The relative viability (HCC-366; first compound 0.08 µM) was 1.01, the relative viability (HCC-366; first compound 0.253 µM) was 0.489 and the relative viability (HCC-366; first compound 0.8 µM) was 0.558. It also gave a relative viability (HCC-366; first compound 2.53 µM) of 0.695, a relative viability (COR-L 105; first compound 0.08 µM) of 0.769 and a relative viability (COR-L 105; first compound 0.253 µM) of 0.661. It also gave a relative viability (COR-L 105; first compound 0.8 µM) of 0.694, a relative viability (COR-L 105; first compound 2.53 µM) of 0.379 and a relative viability (HCC-15; first compound 0.08 µM) of 0.707. For the same compound, the relative viability (HCC-15; first compound 0.253 µM) was 0.665, the relative viability (HCC-15; first compound 0.8 µM) was 0.512 and the relative viability (HCC-15; first compound 2.53 µM) was 0.786. The relative viability (NCI-H2126; first compound 0.08 µM) was 0.704, the relative viability (NCI-H2126; first compound 0.253 µM) was 0.622 and the relative viability (NCI-H2126; first compound 0.8 µM) was 0.64. For the same compound, the relative viability (NCI-H2126; first compound 2.53 µM) was 0.776, the relative viability (NCI-H1993; first compound 0.08 µM) was 0.568 and the relative viability (NCI-H1993; first compound 0.253 µM) was 0.49. It also gave a relative viability (NCI-H1993; first compound 0.8 µM) of 0.536, a relative viability (NCI-H1993; first compound 2.53 µM) of 0.577 and a relative viability (NCI-H2087; first compound 0.08 µM) of 0.48. The relative viability (NCI-H2087; first compound 0.253 µM) was 0.467, the relative viability (NCI-H2087; first compound 0.8 µM) was 0.507 and the relative viability (NCI-H2087; first compound 2.53 µM) was 0.44. For the same compound, the relative viability (HCC-827; first compound 0.08 µM) was 0.903, the relative viability (HCC-827; first compound 0.8 µM) was 0.814 and the relative viability (HCC-827; first compound 2.53 µM) was 0.759. For the same compound, the relative viability (HOP-62; first compound 0.08 µM) was 0.914, the relative viability (HOP-62; first compound 0.253 µM) was 0.813 and the relative viability (HOP-62; first compound 0.8 µM) was 0.972. For the same compound, the relative viability (HOP-62; first compound 2.53 µM) was 0.795, the relative viability (PC-3 [JPC-3]; first compound 0.08 µM) was 0.831 and the relative viability (PC-3 [JPC-3]; first compound 0.253 µM) was 0.757. The relative viability (PC-3 [JPC-3]; first compound 0.8 µM) was 0.692, the relative viability (PC-3 [JPC-3]; first compound 2.53 µM) was 0.742 and the relative viability (SK-MES-1; first compound 0.08 µM) was 0.738. For the same compound, the relative viability (SK-MES-1; first compound 0.253 µM) was 0.594, the relative viability (SK-MES-1; first compound 0.8 µM) was 0.528 and the relative viability (SK-MES-1; first compound 2.53 µM) was 0.777. It also gave a relative viability (BEN; first compound 0.08 µM) of 0.352, a relative viability (BEN; first compound 0.253 µM) of 0.307 and a relative viability (BEN; first compound 0.8 µM) of 0.324. For the same compound, the relative viability (BEN; first compound 2.53 µM) was 0.371, the relative viability (LC-2-ad; first compound 0.08 µM) was 0.886 and the relative viability (LC-2-ad; first compound 0.253 µM) was 0.713. For the same compound, the relative viability (LC-2-ad; first compound 2.53 µM) was 0.962, the relative viability (HARA; first compound 0.08 µM) was 0.554 and the relative viability (HARA; first compound 0.253 µM) was 0.376. The relative viability (HARA; first compound 0.8 µM) was 0.469, the relative viability (HARA; first compound 2.53 µM) was 0.562 and the relative viability (COR-L23; first compound 0.08 µM) was 0.805. The relative viability (COR-L23; first compound 0.253 µM) was 0.762, the relative viability (COR-L23; first compound 0.8 µM) was 0.885 and the relative viability (COR-L23; first compound 2.53 µM) was 0.906. For the same compound, the relative viability (LU99A; first compound 0.08 µM) was 0.291, the relative viability (LU99A; first compound 0.253 µM) was 0.304 and the relative viability (LU99A; first compound 0.8 µM) was 0.327. For the same compound, the relative viability (LU99A; first compound 2.53 µM) was 0.401, the relative viability (LXF-289; first compound 0.08 µM) was 0.926 and the relative viability (LXF-289; first compound 0.253 µM) was 0.777. The relative viability (LXF-289; first compound 0.8 µM) was 0.882 and the relative viability (LXF-289; first compound 2.53 µM) was 0.829.
